Assays:
[1] = system: FLT3, KIT, MET, RET, VEGFR2; settings: one bound for FLT3, KIT; cited from earlier work
DMM-induced OA = experiment: Systemic imatinib in DMM model of OA (Example 5); format: in vivo, mice; settings: 33 mg/kg/day or 100 mg/kg, orally twice-daily for 12 weeks starting one day after DMM surgery
ABL, KIT, PDGFRs, DDRs = settings: read-out: IC50 (nM/L), one bound for ABL; cited from earlier work
allergic rhinorrhea = settings: intranasal dosing; cited from earlier work
allergic rhinitis = settings: phase II clinical trial for allergic rhinitis; cited from earlier work
[2] = system: tie2, pdgfrs, ret, kit, B-RAF; settings: one bound for tie2, pdgfrs; cited from earlier work
[3] = system: VEGFRs, PDGFRs, B-RAF, MEK, ERK, c-FMS; settings: one bound for VEGFRs; cited from earlier work

Compound: COc1cc2nccc(Oc3ccc(NC(=O)C4(C(=O)Nc5ccc(F)cc5)CC4)cc3)c2cc1OC [Cabozatinib]
- IC50 [1]: < 15 nM

Compound: Cc1ccc(NC(=O)c2ccc(CN3CCN(C)CC3)cc2)cc1Nc1nccc(-c2cccnc2)n1 [Imatinib]
- development of DMM-induced OA (histological scores of cartilage damage, synovitis and osteophyte formation) (DMM-induced OA): prevented the development of DMM-induced OA

Compound: Oc1cccc(Nc2ncc(F)c(Nc3cccc(O)c3)n2)c1 [R112]
- allergic rhinorrhea (allergic rhinorrhea): effectively improved allergic rhinorrhea
- safety (allergic rhinorrhea): safe
- efficacy versus placebo (allergic rhinitis): lack of efficacy versus placebo

Compound: CNC(=O)c1cc(Oc2ccc(NC(=O)Nc3ccc(Cl)c(C(F)(F)F)c3)cc2)ccn1 [Sorafenib]
- IC50 [3]: < 100 nM
